Drawing on patent US9371328B2, “Imidazopyridazinecarbonitriles useful as kinase inhibitors” (BRISTOL-MYERS SQUIBB COMPANY, priority 2008, dated 2016), this text covers IC50 for 23 compounds.

Read-outs that look alike come from different tables or passages of the source.

The target in one assay is T1, CK2A1 (CK2α/β) (Homo sapiens, UniProt P68400).
T1 construct: made in house
Kind of assay: CK2 kinase assay, CK2A1 (CK2α/β). In kind it is biochemical. The procedure:
(§1) The effectiveness of compounds of the present invention as inhibitors of protein kinases can be readily tested by assays known to those skilled in the art. For example, in vitro protein kinase assays may be conducted with a relevant purified protein kinase and an appropriate synthetic substrate to determine the inhibitory activity of the compounds. […] Reaction mixtures were incubated at 30° C. for 1 hour, and reaction products were captured by binding to phosphocellulose (P81) filter plates. Incorporation of radioactive phosphate into the peptide substrate was determined by liquid scintillation counting. The potency of compounds in inhibiting CK2 is expressed as IC50, defined as the concentrations of compounds required to inhibit the enzymatic activity by 50%.
(§2) The inhibitory activity of the instant compounds may also be measured by recombinant CK2 holoenzyme kinase assays. The assays were performed in U-bottom 384-well plates. The final assay volume was 30 μl prepared from 15 μl additions of enzyme and substrates (fluoresceinated peptide FL-RRRADDSDDDDD-NH2 and ATP) and test compounds in assay buffer (20 mM HEPES pH 7.4, 10 mM MgCl2, 100 mM NaCl, 0.015% Brij35 and 0.25 mM DTT). The reaction was initiated by the combination of bacterially expressed, CK2 α/β or CK2 α′/β holoenzyme with substrates and test compounds. The reaction was incubated at room temperature for 60 minutes and terminated by adding 30 μl of 35 mM EDTA to each sample. The reaction mixture was analyzed on the Caliper LABCHIP® 3000 (Caliper, Hopkinton, Mass.) by electrophoretic separation of the fluorescent substrate and phosphorylated product. Inhibition data were calculated by comparison to no enzyme control reactions for 100% inhibition and vehicle-only reactions for 0% inhibition. The final concentration of reagents in the CK2 α/β assay was 25 μM ATP, 1.5 μM FL-RRRADDSDDDDD-NH2, […] CK2 α/β holoenzyme, and 1.6% DMSO. The final concentration of reagents in the CK2 α′/β assay was 10 μM ATP, 1.5 μM FL-RRRADDSDDDDD-NH2, 100 pM CK2 α′/β holoenzyme, and 1.6% DMSO. Dose response curves were generated to determine the concentration required inhibiting 50% of kinase activity (IC50). Compounds were dissolved at 10 mM in dimethylsulfoxide (DMSO) and evaluated at eleven concentrations. IC50 values were derived by non-linear regression analysis.

Another assay relates to HCT116. Kind of assay: Cell proliferation inhibition assay (MTT/MTS). The class given is cell-based. As to conditions: Homo sapiens, HCT-116, Table 1, 72 h with compound. The procedure: Compounds were evaluated for their ability to inhibit cell proliferation, using an assay that measures mitochondrial metabolic activity, that is directly correlated with cell numbers. Cells were plated at 2000 cells/well in 96-well plates and were cultured for 24 h in RPMI-1640 supplemented with 2% fetal bovine serum, before test compounds were added. Compounds were diluted in culture medium such that the final concentration of dimethyl sulfoxide never exceeded 1%. Following the addition of compounds, the cells were cultured for an additional 72 h before cell viability was determined by measuring the conversion of 3-(4,5-dimethylthiazol-2-yl)-2,5-diphenyltetrazolium bromide (MTT) dye using the CellTiter96 kit (Promega) or by measuring the conversion of [3-(4,5-dimethylthiazol-2-yl)-5-(3-carboxymethoxyphenyl)-2-(4-sulfophenyl)-2H-tetrazolium (MTS) dye using the CELLTITER 96® AQueous (Promega).

Another assay has as its target T2, CK2A2 (CK2α′/β) (Homo sapiens, UniProt P19784).
T2 construct: made in house
Kind of assay: CK2 kinase assay, CK2A2 (CK2α′/β). The class given is biochemical. As for the experimental part: as §1, §2

The mark [1] stands for this setting: Table 1, read-out: CK2A1 (CK2α/β) (IC50).
[2] abbreviates: Table 1, read-out: CK2A2 (CK2α′/β) (IC50).
[3] abbreviates: Table 2, comparison compounds of US 2008/0045536, read-out: CK2A1 IC50.
Where [4] appears, read: Table 2, comparison compounds of US 2008/0045536, read-out: CK2A2 IC50.

T2 sequence (P19784 whole entry, species assumed): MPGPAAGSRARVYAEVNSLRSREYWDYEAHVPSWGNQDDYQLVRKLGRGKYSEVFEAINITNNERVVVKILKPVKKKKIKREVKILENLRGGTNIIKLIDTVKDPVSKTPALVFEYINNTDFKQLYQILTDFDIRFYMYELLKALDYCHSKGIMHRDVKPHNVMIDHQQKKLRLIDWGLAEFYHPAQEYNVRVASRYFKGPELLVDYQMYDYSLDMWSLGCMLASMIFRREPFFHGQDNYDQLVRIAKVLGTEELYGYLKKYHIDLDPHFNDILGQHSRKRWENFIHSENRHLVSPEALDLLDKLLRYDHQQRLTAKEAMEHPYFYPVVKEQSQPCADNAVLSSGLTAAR
T2 sequence (P67870 whole entry partner, species assumed): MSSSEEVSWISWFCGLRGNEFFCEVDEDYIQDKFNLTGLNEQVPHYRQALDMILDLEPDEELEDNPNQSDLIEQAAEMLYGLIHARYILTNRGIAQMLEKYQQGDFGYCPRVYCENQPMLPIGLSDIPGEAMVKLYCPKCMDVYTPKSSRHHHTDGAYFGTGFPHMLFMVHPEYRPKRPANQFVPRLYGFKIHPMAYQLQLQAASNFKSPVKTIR
T1 sequence (P68400 whole entry, species assumed): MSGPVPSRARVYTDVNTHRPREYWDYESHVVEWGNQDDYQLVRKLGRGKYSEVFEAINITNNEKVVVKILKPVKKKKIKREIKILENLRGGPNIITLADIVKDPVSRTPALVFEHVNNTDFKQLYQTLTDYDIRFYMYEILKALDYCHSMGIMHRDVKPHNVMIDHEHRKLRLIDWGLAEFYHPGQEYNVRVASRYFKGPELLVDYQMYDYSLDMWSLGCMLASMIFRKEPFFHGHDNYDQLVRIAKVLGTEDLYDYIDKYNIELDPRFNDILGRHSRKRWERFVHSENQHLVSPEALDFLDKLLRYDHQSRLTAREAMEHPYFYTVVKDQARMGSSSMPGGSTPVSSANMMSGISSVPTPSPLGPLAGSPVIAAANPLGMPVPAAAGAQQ
T1 sequence (P67870 whole entry partner, species assumed): as the sequence (P67870 whole entry partner, species assumed) above

Take `N#Cc1cnc2c(NC3CC3)cc(Nc3cccc(C(=O)O)c3)nn12` [Example 44, 3-((3-Cyano-8-(cyclopropylamino)imidazo [1,2-b]pyridazin-6-yl)amino) benzoic acid]: the IC50 was 1310 nM on CK2A1 (CK2α/β) (setting [1]), more than 1000 nM in the assay on HCT116 and 35.1 nM on CK2A2 (CK2α′/β) (setting [2]).

As to `CCOc1ccc(Nc2cc(N[C@H]3CC[C@H](N)CC3)nn3ccnc23)cc1` [I(1), reference compound], at CK2A1 (CK2α/β) (setting [3]), the IC50 is more than 50000 nM.

With `Cn1cnnc1-c1cccc(Nc2cc(NC3CC3)c3ncc(C#N)n3n2)c1` [Example 48, 8-(Cyclopropylamino)-6-((3 - (4-methyl-4H-1,2,4-triazol-3-yl)phenyl)amino) imidazo[1,2-b]pyridazine-3-carbonitrile], the IC50 turned out to be 417 nM at CK2A1 (CK2α/β) (setting [1]), 460 nM in the assay with HCT116 and 106 nM on CK2A2 (CK2α′/β) (setting [2]).

As to `CC(=O)Nc1cc(Nc2cc(NC3CC3)c3ncc(C#N)n3n2)ccc1C` [Example 1, N-(5-((3-Cyano-8-(cyclopropylamino)imidazo[1,2-b]pyridazin-6-yl)amino)-2-methylphenyl)acetamide], the values for the IC50 on CK2A1 (CK2α/β) (setting [1]), in the assay on HCT116 and at CK2A2 (CK2α′/β) (setting [2]) were 6 nM, 30 nM and 7.5 nM, respectively.

With `COc1ccc(C#N)cc1Nc1cc(N)c2ncc(C#N)n2n1` [Example 228, 8-Amino-6-((5-cyano-2-methoxyphenyl)amino) imidazo[1,2-b]pyridazine-3-carbonitrile], the IC50 at CK2A1 (CK2α/β) (setting [1]) was 9 nM; in the assay on HCT116 it was 327 nM; on CK2A2 (CK2α′/β) (setting [2]), 1.7 nM.

With `N[C@H]1CC[C@H](Nc2cc(Nc3ccccc3)c3nccn3n2)CC1` [I(7), reference compound], the IC50 on CK2A1 (CK2α/β) (setting [3]) and on CK2A2 (CK2α′/β) (setting [4]) was more than 50000 nM in each case.

As to `N#Cc1cnc2c(NC3CC3)cc(Nc3cccc(C(N)=O)c3)nn12` [Example 71, 3-((3-Cyano-8-(cyclopropylamino)imidazo [1,2-b]pyridazin-6-yl)amino) benzamide], the figures for the IC50 at CK2A1 (CK2α/β) (setting [1]), in the assay with HCT116 and at CK2A2 (CK2α′/β) (setting [2]) were 261 nM, 945 nM and 15.6 nM, respectively.

`CC(C)C(=O)Nc1cccc(Nc2cc(NC3CC3)c3ncc(C#N)n3n2)c1` [Example 66, N-(3-((3-Cyano-8-(cyclopropylamino)imidazo [1,2-b]pyridazin-6-yl)amino)phenyl)-2-methylpropanamide]: the IC50 is 6060 nM on CK2A1 (CK2α/β) (setting [1]), more than 2500 nM in the assay with HCT116 and 778 nM at CK2A2 (CK2α′/β) (setting [2]).

Consider `N#Cc1cnc2c(NC3CC3)cc(Nc3cc(-n4cncn4)ccc3OC(F)(F)F)nn12` [Example 167, 8-(Cyclopropylamino)-6-((5-(1H-1,2,4-triazol-1-yl)-2-(trifluoromethoxy)phenyl)amino)imidazo[1,2-b]pyridazine-3-carbonitrile], for which the IC50 on CK2A1 (CK2α/β) (setting [1]) was 103 nM; in the assay on HCT116, more than 1000 nM; on CK2A2 (CK2α′/β) (setting [2]), 12.5 nM.

`COc1ccc(Nc2cc(Nc3ccc(OC(F)(F)F)c(-n4cnnc4)c3)nn3c(C#N)cnc23)nc1` [Example 111, 8-((5-Methoxy-2-pyridinyl)amino)-6-((3-(4H-1,2,4-triazol-4-yl)-4-(trifluoromethoxy)phenyl)amino)imidazo[1,2-b] pyridazine-3-carbonitrile]: the IC50 came out at 116 nM at CK2A1 (CK2α/β) (setting [1]), 34 nM in the assay on HCT116 and 24 nM on CK2A2 (CK2α′/β) (setting [2]).

As to `N#Cc1cnc2c(NC3CC3)cc(Nc3cccc(N4CCCC4=O)c3)nn12` [Example 73, 8-(Cyclopropylamino)-6-((3-(2-oxo-1-pyrrolidinyl)phenyl)amino)imidazo[1,2-b]pyridazine-3-carbonitrile], the figures for the IC50 at CK2A1 (CK2α/β) (setting [1]), in the assay with HCT116 and at CK2A2 (CK2α′/β) (setting [2]) were 4600 nM, 2240 nM and 738 nM, respectively.

`Cc1nc(-c2cccc(Nc3cc(NC4CC4)c4ncc(C#N)n4n3)c2)cs1` [Example 80, 8-(Cyclopropylamino)-6-((3-(2-methyl-1,3-thiazol-4-yl)phenyl)amino)imidazo[1,2-b]pyridazine-3-carbonitrile]: the IC50 is 4660 nM at CK2A1 (CK2α/β) (setting [1]), more than 1000 nM in the assay on HCT116 and 1490 nM on CK2A2 (CK2α′/β) (setting [2]).

Regarding `Cc1cc(O)nc2cc(Nc3cc(NC4CC4)c4ncc(C#N)n4n3)ccc12` [Example 58, 8-(Cyclopropylamino)-6-((4-methyl-2-oxo-1,2-dihydro-7-quinolinyl)amino)imidazo[1,2-b]pyridazine-3-carbonitrile], the IC50 on CK2A1 (CK2α/β) (setting [1]) worked out at 12.2 nM; in the assay on HCT116, 98 nM; at CK2A2 (CK2α′/β) (setting [2]), 2.2 nM.

`COc1ccc(-n2cncn2)cc1Nc1cc(NC2CC2)c2ncc(C#N)n2n1` [Example 160, 8-(Cyclopropylamino)-6-((2-methoxy-5-(1H-1,2,4-triazol-1-yl)phenyl)amino)imidazo [1,2-b]pyridazine-3-carbonitrile]: the results for the IC50 at CK2A1 (CK2α/β) (setting [1]), in the assay on HCT116 and on CK2A2 (CK2α′/β) (setting [2]) were 19.7 nM, 45 nM and 4.6 nM, respectively.

Regarding `COC(=O)Nc1cc(Nc2cc(NC3CC3)c3ncc(C#N)n3n2)ccc1C` [Example 95, Methyl (5-((3-cyano-8-(cyclopropylamino)imidazo [1,2-b]pyridazin-6-yl)amino)-2-methylphenyl) carbamate], the IC50 on CK2A1 (CK2α/β) (setting [1]) came to 6.5 nM; in the assay on HCT116, 22 nM; at CK2A2 (CK2α′/β) (setting [2]), 3 nM.

Consider `N#Cc1cnc2c(NC3CC3)cc(Nc3cccc(-c4nnco4)c3)nn12` [Example 82, 8-(Cyclopropylamino)-6-((3-(1,3,4-oxadiazol-2-yl)phenyl)amino)imidazo[1,2-b]pyridazine-3-carbonitrile], for which the results for the IC50 on CK2A1 (CK2α/β) (setting [1]), with HCT116 and at CK2A2 (CK2α′/β) (setting [2]) were 479 nM, 127 nM and 126 nM, respectively.

In the case of `N#Cc1cnc2c(NC3CC3)cc(Nc3ccc(Cl)c(-c4ncco4)c3)nn12` [Example 81, 6-((4-Chloro-3-(1,3-oxazol-2-yl)phenyl)amino)-8-(cyclopropylamino)imidazo [1,2-b]pyridazine-3-carbonitrile], the IC50 is 512 nM at CK2A1 (CK2α/β) (setting [1]), more than 1000 nM with HCT116 and 115 nM at CK2A2 (CK2α′/β) (setting [2]).

On to `Cc1cc(Cl)c(Nc2cc(NC3CC3)c3ncc(C#N)n3n2)cc1C#N` [Example 225, 6-((2-Chloro-5-cyano-4-methylphenyl)amino)-8-(cyclopropylamino)imidazo [1,2-b]pyridazine-3-carbonitrile], for which the IC50 at CK2A1 (CK2α/β) (setting [1]) was found to be 8.2 nM; in the assay on HCT116, 35 nM; on CK2A2 (CK2α′/β) (setting [2]), 1.1 nM.

Consider `Cc1ccc(Nc2cc(NC3CC3)c3ncc(C#N)n3n2)cc1CC(=O)O` [Example 224, (5-((3-Cyano-8-(cyclopropylamino)imidazo [1,2-b]pyridazin-6-yl)amino)-2-methylphenyl) acetic acid], for which the results for the IC50 at CK2A1 (CK2α/β) (setting [1]), with HCT116 and on CK2A2 (CK2α′/β) (setting [2]) were 794 nM, more than 10000 nM and 126 nM, respectively.

Turning to `N#Cc1ccc(Nc2cc(NC3CC3)c3ncc(C#N)n3n2)cc1C(F)(F)F` [Example 31, 6-((4-Cyano-3-(trifluoromethyl)phenyl)amino)-8-(cyclopropylamino)imidazo [1,2-b]pyridazine-3-carbonitrile], the IC50 on CK2A1 (CK2α/β) (setting [1]) came out at 143 nM; in the assay with HCT116, 460 nM; at CK2A2 (CK2α′/β) (setting [2]), 25.7 nM.

Consider `N#Cc1cnc2c(NC3CC3)cc(Nc3ccc(F)c(-n4cnnc4)c3)nn12` [Example 46, 8-(Cyclopropylamino)-6-((4-fluoro-3-(4H-1,2,4-triazol-4-yl)phenyl)amino)imidazo [1,2-b]pyridazine-3-carbonitrile], for which the IC50 at CK2A1 (CK2α/β) (setting [1]) was 4.3 nM; in the assay on HCT116, 150 nM; at CK2A2 (CK2α′/β) (setting [2]), 2.4 nM.

Regarding `Cc1ccc(Nc2cc(N[C@H]3CC[C@H](N)CC3)nn3ccnc23)nc1` [II(16), reference compound], the IC50 was more than 50000 nM on CK2A1 (CK2α/β) (setting [3]) and 31800 nM on CK2A2 (CK2α′/β) (setting [4]).

Turning to `Cc1c(N[C@H]2CC[C@H](N)CC2)nn2c(C#N)cnc2c1Nc1ccccc1` [XXV(1), reference compound], the IC50 is 2690 nM at CK2A1 (CK2α/β) (setting [3]) and 8090 nM on CK2A2 (CK2α′/β) (setting [4]).
